Measured values from ChEMBL document CHEMBL1909046, “DrugMatrix in vitro pharmacology data”.

How the values were obtained:
[1] = target: T1, Alpha-2A adrenergic receptor (Homo sapiens, UniProt P08913); assay type: cell membranes, Sf9, Membrane; note: in other assays of this panel Not Active means under 50% inhibition at 10 µM
T1 sequence (P08913 whole entry): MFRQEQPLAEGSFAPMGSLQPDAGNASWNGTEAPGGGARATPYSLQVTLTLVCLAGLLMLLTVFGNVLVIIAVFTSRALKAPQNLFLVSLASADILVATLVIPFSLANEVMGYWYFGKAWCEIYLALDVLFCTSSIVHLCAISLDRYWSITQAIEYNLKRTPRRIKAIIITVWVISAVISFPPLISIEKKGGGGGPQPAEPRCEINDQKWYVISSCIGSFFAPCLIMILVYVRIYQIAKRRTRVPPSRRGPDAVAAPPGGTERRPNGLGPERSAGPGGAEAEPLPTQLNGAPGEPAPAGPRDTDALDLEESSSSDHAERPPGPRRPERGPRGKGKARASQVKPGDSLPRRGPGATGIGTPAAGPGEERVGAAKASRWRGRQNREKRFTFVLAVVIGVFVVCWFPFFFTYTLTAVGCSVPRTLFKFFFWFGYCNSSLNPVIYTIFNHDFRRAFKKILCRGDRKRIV

Thromboxane-A synthase = target: T2, Thromboxane-A synthase (Homo sapiens, UniProt P24557); test: biochemical; assay type: tissue-based, Platelet;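 note: enzyme inhibition assay with PGH2 supplied as substrate; in other assays of this panel Not Active means under 50% inhibition at 10 µM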
T2 sequence (P24557 whole entry): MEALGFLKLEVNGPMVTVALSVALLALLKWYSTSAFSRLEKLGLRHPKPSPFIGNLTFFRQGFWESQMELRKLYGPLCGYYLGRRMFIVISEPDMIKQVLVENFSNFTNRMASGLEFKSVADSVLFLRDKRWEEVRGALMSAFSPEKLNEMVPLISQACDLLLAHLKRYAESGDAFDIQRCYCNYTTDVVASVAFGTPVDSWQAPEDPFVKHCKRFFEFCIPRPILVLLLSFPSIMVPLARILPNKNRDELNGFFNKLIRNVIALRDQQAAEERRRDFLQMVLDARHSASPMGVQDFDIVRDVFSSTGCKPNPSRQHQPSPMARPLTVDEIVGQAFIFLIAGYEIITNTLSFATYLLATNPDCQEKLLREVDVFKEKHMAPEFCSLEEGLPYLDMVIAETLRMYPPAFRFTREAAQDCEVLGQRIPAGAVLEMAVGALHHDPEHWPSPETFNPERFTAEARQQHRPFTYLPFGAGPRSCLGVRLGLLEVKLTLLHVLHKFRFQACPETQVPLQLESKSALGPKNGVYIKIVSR

D(1A) dopamine receptor = D(1A) dopamine receptor (Homo sapiens, UniProt P21728); test: DRUGMATRIX: Dopamine D1 radioligand binding (ligand: [3H] SCH-23390); assay type: cell membranes, CHO, Membrane; settings: Not Active = under 50% inhibition at 10 µM
[2] = target: Aldo-keto reductase family 1 member B1 (Rattus norvegicus, UniProt P07943); test: biochemical; assay type: tissue-based, Lens of camera-type eye;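 note: inhibition of aldose reductase enzyme activity, measured with DL-glyceraldehyde as the substrate; in other assays of this panel Not Active means under 50% inhibition at 10 µM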
[3] = DRUGMATRIX: GABAA, Flunitrazepam, Central radioligand binding (ligand: [3H] Flunitrazepam); assay type: cell membranes, Rattus norvegicus, Wistar, Brain, Membrane; settings: Not Active = under 50% inhibition at 10 µM

D(1A) dopamine receptor, sequence (P21728 whole entry): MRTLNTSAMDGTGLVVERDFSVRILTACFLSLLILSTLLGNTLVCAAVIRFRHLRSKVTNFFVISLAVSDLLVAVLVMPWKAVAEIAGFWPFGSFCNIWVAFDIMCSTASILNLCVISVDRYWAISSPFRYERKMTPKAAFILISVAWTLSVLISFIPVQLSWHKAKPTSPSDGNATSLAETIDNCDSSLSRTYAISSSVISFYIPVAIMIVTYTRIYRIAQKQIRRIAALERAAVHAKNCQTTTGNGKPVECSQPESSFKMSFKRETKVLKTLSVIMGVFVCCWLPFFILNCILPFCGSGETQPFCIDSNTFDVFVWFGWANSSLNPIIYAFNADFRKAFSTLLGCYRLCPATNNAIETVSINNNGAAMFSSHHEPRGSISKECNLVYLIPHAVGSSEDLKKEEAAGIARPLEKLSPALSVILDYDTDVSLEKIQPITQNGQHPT

Compound	IC50 ([1]; sf9)	IC50 (Thromboxane-A synthase; platelet)	IC50 (D(1A) dopamine receptor; cho)	IC50 [2]	IC50 [3]	Ki [3]	IC50 ([1]; read-out: IC50)	Ki ([1]; read-out: Ki)	Ki ([1]; sf9)	Ki (Thromboxane-A synthase; platelet)	Ki (D(1A) dopamine receptor; cho)	Ki [2]	IC50 ([3]; read-out: IC50)	Ki ([3]; read-out: Ki)	IC50 (D(1A) dopamine receptor; read-out: IC50)	Ki (D(1A) dopamine receptor; read-out: Ki)	IC50 (Thromboxane-A synthase; read-out: IC50)
CC(C)(C#N)c1cc(Cn2cncn2)cc(C(C)(C)C#N)c1 [ANASTROZOLE]	Not Active	Not Active	Not Active	Not Active	Not Active	Not Active											
CC12CCC(CC1=O)C2(C)C (stereo not drawn) [CAMPHOR]	Not Active	Not Active	Not Active	Not Active	Not Active	Not Active											
CC12CCC(CC1)C(C)(C)O2 [EUCALYPTOL]	Not Active	Not Active	Not Active	Not Active	Not Active	Not Active											
Cc1ccnc2c1NC(=O)c1cccnc1N2C1CC1 [NEVIRAPINE]	Not Active	Not Active	Not Active	Not Active	Not Active	Not Active											
Clc1cc(Cl)c(OCC#CI)cc1Cl [HALOPROGIN]		Not Active		Not Active	Not Active	Not Active	1220 nM	458 nM									
Oc1ccccc1 [PHENOL]	Not Active	Not Active	Not Active	Not Active	Not Active	Not Active											
CCCCCCNC(=O)n1cc(F)c(=O)[nH]c1=O [CARMOFUR]	Not Active	Not Active	Not Active	Not Active	Not Active	Not Active											
Nc1ccc(C(=O)O)c(O)c1 [AMINOSALICYLIC ACID]	Not Active	Not Active	Not Active	Not Active	Not Active	Not Active											
COc1cc(NC(C)CCCN)c2ncccc2c1 (stereo not drawn) [PRIMAQUINE]	Not Active	Not Active	Not Active	Not Active	Not Active	Not Active											
Cc1cc(C(C)(C)C)c(O)c(C)c1CC1=NCCN1 [OXYMETAZOLINE]		Not Active	Not Active	Not Active	Not Active	Not Active											
O=c1[nH]cnc2c1ncn2[C@H]1CC[C@@H](CO)O1 [DIDANOSINE]	Not Active	Not Active	Not Active	Not Active	Not Active	Not Active											
CC(=O)[C@]1(O)Cc2c(O)c3c(c(O)c2[C@@H](O[C@H]2C[C@H](N)[C@H](O)[C@H](C)O2)C1)C(=O)c1ccccc1C3=O [IDARUBICIN]	Not Active	Not Active	Not Active	Not Active	Not Active	Not Active											
COC(=O)Nc1nc2ccc(Sc3ccccc3)cc2[nH]1 [FENBENDAZOLE]	Not Active	Not Active	Not Active	Not Active	Not Active	Not Active											
CC(C)(c1ccc(O)cc1)c1ccc(O)cc1 [BISPHENOL A]	Not Active	Not Active	Not Active	Not Active	Not Active	Not Active											
C=C(Cl)Cl [1,1-DICHLOROETHENE]	Not Active	Not Active	Not Active	Not Active	Not Active	Not Active											
O=C(O)CCc1nc(-c2ccccc2)c(-c2ccccc2)o1 [OXAPROZIN]	Not Active	Not Active	Not Active	Not Active	Not Active	Not Active											

Compound	IC50 ([1]; sf9)	IC50 (Thromboxane-A synthase; platelet)	IC50 (D(1A) dopamine receptor; cho)	IC50 [2]	IC50 [3]	Ki [3]	IC50 ([1]; read-out: IC50)	Ki ([1]; read-out: Ki)	Ki ([1]; sf9)	Ki (Thromboxane-A synthase; platelet)	Ki (D(1A) dopamine receptor; cho)	Ki [2]	IC50 ([3]; read-out: IC50)	Ki ([3]; read-out: Ki)	IC50 (D(1A) dopamine receptor; read-out: IC50)	Ki (D(1A) dopamine receptor; read-out: Ki)	IC50 (Thromboxane-A synthase; read-out: IC50)
NCC(CC(=O)O)c1ccc(Cl)cc1 (stereo not drawn) [BACLOFEN]	Not Active	Not Active	Not Active	Not Active	Not Active	Not Active											
CC[C@H]1OC(=O)[C@H](C)[C@@H](O[C@H]2C[C@@](C)(OC)[C@@H](O)[C@H](C)O2)[C@H](C)[C@@H](O[C@@H]2O[C@H](C)C[C@H](N(C)C)[C@H]2O)[C@](C)(O)C[C@@H](C)C(=O)[C@H](C)[C@@H](O)[C@]1(C)O [ERYTHROMYCIN]	Not Active	Not Active	Not Active	Not Active	Not Active	Not Active											
C=CCO [ALLYL ALCOHOL]	Not Active	Not Active	Not Active	Not Active	Not Active	Not Active											
COC(=O)C[C@](O)(CCC(C)(C)O)C(=O)O[C@@H]1C(OC)=C[C@]23CCCN2CCc2cc4c(cc2[C@H]13)OCO4 [HARRINGTONINE]	Not Active	Not Active	Not Active	Not Active	Not Active	Not Active											
CHROMIC CHLORIDE	Not Active	Not Active	Not Active	Not Active	Not Active	Not Active			Not Active	Not Active	Not Active	Not Active					
C#C[C@]1(O)CC[C@H]2[C@@H]3CCC4=CC(=O)CC[C@@H]4[C@H]3CC[C@@]21C [NORETHINDRONE]	Not Active	Not Active	Not Active	Not Active									13300 nM	10900 nM			
O=C1CN(/N=C/c2ccc([N+](=O)[O-])o2)C(=O)N1 [NITROFURANTOIN]	Not Active	Not Active	Not Active	Not Active	Not Active	Not Active											
c1ccc2c(c1)Nc1ccccc1S2 [PHENOTHIAZINE]	Not Active	Not Active	Not Active	Not Active	Not Active	Not Active											
CC(CN1c2ccccc2Sc2ccccc21)N(C)C (stereo not drawn) [PROMETHAZINE]		Not Active		Not Active	Not Active	Not Active									2740 nM	1370 nM	
c1ccc(Cn2ccnc2)cc1	Not Active		Not Active	Not Active	Not Active	Not Active											602 nM
CC(C)Cn1cnc2c(N)nc3ccccc3c21 [IMIQUIMOD]	Not Active	Not Active	Not Active	Not Active	Not Active	Not Active											
OC[C@H]1OC2C3[C@@H](CO)OC(O[C@H]4[C@H](O)[C@@H](O)[C@@H](O[C@H]5[C@H](O)[C@@H](O)[C@@H](O[C@H]6[C@H](O)[C@@H](O)[C@@H](O[C@H]7[C@H](O)[C@@H](O)[C@@H](O[C@H]8[C@H](O)[C@@H](O)[C@@H](O[C@H]9[C@H](O)[C@@H](O)C(OC1[C@H](O)[C@H]2O)O[C@@H]9CO)O[C@@H]8CO)O[C@@H]7CO)O[C@@H]6CO)O[C@@H]5CO)O[C@@H]4CO)[C@H](O)[C@H]3O	Not Active	Not Active	Not Active	Not Active	Not Active	Not Active											
COc1cc(/C=C/C(=O)O)ccc1O [FERULATE]	Not Active	Not Active	Not Active	Not Active	Not Active	Not Active											
CNC[C@H](O)c1ccc(O)c(O)c1 [EPINEPHRINE]		Not Active	Not Active	Not Active	Not Active	Not Active											
CC1(COc2ccc(CC3SC(=O)NC3=O)cc2)CCCCC1 (stereo not drawn) [CIGLITAZONE]		Not Active		Not Active	Not Active	Not Active	16600 nM	6210 nM									
